{"source": "patent US20240239775A1", "about": "“FXR REGULATOR, PREPARATION METHOD THEREFOR, PHARMACEUTICAL COMPOSITION THEREOF AND USE THEREOF” (QINGDAO RUIJI MEDICAL TECHNOLOGY CO., LTD., priority 2021, published 2024)"}
{"target": "T1, FXR (Homo sapiens, UniProt Q96RI1)", "T1 construct": "5 μL of 20 nM FXR-LBD Complete Coregulator buffer G; purchased ThermoFisher PV4833", "T1 sequence (Q96RI1 262-486 limits assumed)": "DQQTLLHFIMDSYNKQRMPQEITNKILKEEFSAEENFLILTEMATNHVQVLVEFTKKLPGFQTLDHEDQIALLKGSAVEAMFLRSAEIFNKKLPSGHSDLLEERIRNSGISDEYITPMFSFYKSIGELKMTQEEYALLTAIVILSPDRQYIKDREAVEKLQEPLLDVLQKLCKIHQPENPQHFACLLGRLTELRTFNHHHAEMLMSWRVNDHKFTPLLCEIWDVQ", "assay": "FXR antagonist screening by TR-FRET (LanthaScreen TR-FRET FXR co-activation assay kit)", "format": "biochemical", "conditions": "Table 1.2, FXR antagonistic activity; TR-FRET with CDCA; geometric means of at least two independent runs", "in_short": "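FXR-LBD (20 nM working solution) mixed with compound, CDCA (200 μM working solution) as agonist, Fluorescein-SRC2-2 and Tb-anti-GST antibody in Coregulator buffer G; 10 h at room temperature. Coactivator recruitment read by TR-FRET, triplicate wells.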", "units": {"IC50": "µM"}}
{"smiles": "CCOC(=O)c1oc2ccc(S(=O)(=O)N(CCc3ccccc3)c3ccccc3N3CCN(C(=O)c4ccc(C)s4)CC3)cc2c1C", "note": "[Example M10-139, Ethyl 5-(N-(2-(4-(5-methylthiophene-2-formyl)piperazin-1-yl)phenyl)-N-phenethylsulfamoyl)3-methylbenzofuran-2-carboxylate]", "IC50": "50 to 100"}
{"smiles": "CCOC(=O)c1oc2ccc(S(=O)(=O)N(CCc3ccccc3)c3ccccc3N3CCN(C(=O)c4cc(C)cs4)CC3)cc2c1C", "note": "[Example M10-140, Ethyl 5-(N-(2-(4-(4-methylthiophene-2-formyl)piperazin-1-yl)phenyl)-N-phenethylsulfamoyl)3-methylbenzofuran-2-carboxylate]", "IC50": "50 to 100"}
{"smiles": "CCOC(=O)c1oc2ccc(S(=O)(=O)N(CCc3ccccc3)c3ccccc3N3CCN(C(=O)c4sccc4C)CC3)cc2c1C", "note": "[Example M10-141, Ethyl 5-(N-(2-(4-(3-methylthiophene-2-formyl)piperazin-1-yl)phenyl)-N-phenethylsulfamoyl)3-methylbenzofuran-2-carboxylate]", "IC50": "50 to 100"}
{"smiles": "CCOC(=O)c1oc2ccc(S(=O)(=O)N(CCc3ccccc3)c3ccccc3N3CCN(C(=O)c4ncc[nH]4)CC3)cc2c1C", "note": "[Example M10-142, Ethyl 5-(N-(2-(4-(1H-imidazole-2-formyl)piperazin-1-yl)phenyl)-N-phenethylsulfamoyl)3-methylbenzofuran-2-carboxylate]", "IC50": "50 to 100"}
{"smiles": "CCOC(=O)c1oc2ccc(S(=O)(=O)N(CCc3ccccc3)c3ccccc3N3CCN(C(=O)C4CCCS4)CC3)cc2c1C", "note": "(stereo not drawn) [Example M10-143, Ethyl 5-(N-(2-(4-(tetrahydrothiophene-2-formyl)piperazin-1-yl)phenyl)-N-phenethylsulfamoyl)3-methylbenzofuran-2-carboxylate]", "IC50": "50 to 100"}
{"smiles": "CCOC(=O)c1oc2ccc(S(=O)(=O)N(CCc3ccccc3)c3ccccc3N3CCN(C(=O)c4c[nH]cn4)CC3)cc2c1C", "note": "[Example M10-144, Ethyl 5-(N-(2-(4-(1H-imidazole-4-carbonyl)piperazin-1-yl)phenyl)-N-phenethylsulfamoyl)3-methylbenzofuran-2-carboxylate]", "IC50": "50 to 100"}
{"smiles": "CCOC(=O)c1oc2ccc(S(=O)(=O)N(CCc3ccccc3)c3ccccc3N3CCN(C(=O)C(CC)CC)CC3)cc2c1C", "note": "[Example M10-145, Ethyl 5-(N-(2-(4-(2-ethylbutyryl)piperazin-1-yl)phenyl)-N-phenethylsulfamoyl)3-methylbenzofuran-2-carboxylate]", "IC50": "50 to 100"}
{"smiles": "CCOC(=O)c1oc2ccc(S(=O)(=O)N(CCc3ccccc3)c3ccccc3N3CCN(C(=O)c4ccno4)CC3)cc2c1C", "note": "[Example M10-146, Ethyl 5-(N-(2-(4-(isoxazole-5-carbonyl)piperazin-1-yl)phenyl)-N-phenethylsulfamoyl)3-methylbenzofuran-2-carboxylate]", "IC50": "50 to 100"}
{"smiles": "CCOC(=O)c1oc2ccc(S(=O)(=O)N(CCc3ccccc3)c3ccccc3N3CCC(NC(=O)c4sccc4Br)CC3)cc2c1C", "note": "[Example M10-147, ethyl 5-(N-(2-(4-(3-bromothiophene-2-carboxamido)piperidin-1-yl)phenyl)-N-phenethylsulfamoyl)-3-methylbenzofuran-2-carboxylate]", "IC50": "50 to 100"}
{"smiles": "CCOC(=O)c1oc2ccc(S(=O)(=O)N(CCc3ccccc3)c3ccccc3N3CCC4(CCN(C(=O)c5sccc5Br)C4)CC3)cc2c1C", "note": "[Example M10-148]", "IC50": "50 to 100"}
{"smiles": "CCOC(=O)c1oc2ccc(S(=O)(=O)N(CCc3ccccc3)c3ccccc3N3CC4(CCN(C(=O)c5sccc5Br)CC4)C3)cc2c1C", "note": "[Example M10-149, Ethyl 5-(N-(2-(7-(3-bromothiophene-2-carbonyl)-2,7-diazaspiro[3.5]nonan-2-yl)phenyl)-N-phenethylsulfamoyl)-3-methylbenzofuran-2-carboxylate]", "IC50": "50 to 100"}
{"smiles": "CCOC(=O)c1oc2ccc(S(=O)(=O)N(CCc3ccccc3)c3ccccc3N3CCC4(CC3)CN(C(=O)c3sccc3Br)C4)cc2c1C", "note": "[Example M10-150]", "IC50": "50 to 100"}
{"smiles": "CCOC(=O)c1oc2ccc(S(=O)(=O)N(CCc3ccccc3)c3ccccc3N3CC4CC(C3)N4C(=O)c3sccc3Br)cc2c1C", "note": "[Example M10-151, Ethyl 5-(N-(2-(6-(3-bromothiophene-2-carbonyl)-3,6-diazabicyclo[3.1.1]heptan-3-yl)phenyl)-N-phenethylsulfamoyl)-3-methylbenzofuran-2-carboxylate]", "IC50": "50 to 100"}
{"smiles": "CCOC(=O)c1oc2ccc(S(=O)(=O)N(CCc3ccccc3)c3ccccc3N3CCN(C(=O)c4sccc4Br)C[C@@H]3C)cc2c1C", "note": "[Example M10-152, (S)-ethyl-5-(N-(2-(4-(3-bromothiophene-2-carbonyl)-2-methylpiperazin-1-yl)phenyl)-N-phenethylsulfamoyl)-3-methylbenzofuran-2-carboxylate]", "IC50": "50 to 100"}
{"smiles": "CCOC(=O)c1oc2ccc(S(=O)(=O)N(CCc3ccccc3)c3ccccc3N3CCN(C(=O)c4sccc4Br)C[C@H]3C)cc2c1C", "note": "[Example M10-153, (R)-ethyl-5-(N-(2-(4-(3-bromothiophene-2-carbonyl)-2-methylpiperazin-1-yl)phenyl)-N-phenethylsulfamoyl)-3-methylbenzofuran-2-carboxylate]", "IC50": "50 to 100"}
{"smiles": "CCOC(=O)c1oc2ccc(S(=O)(=O)N(CCc3ccccc3)c3ccccc3N3CCCN(C(=O)c4sccc4Br)CC3)cc2c1C", "note": "[Example M10-154, Ethyl 5-(N-(2-(4-(3-bromothiophene-2-formyl)-1,4-diazepin-1-yl)phenyl)-N-phenethylsulfamoyl)-3-methylbenzofuran-2-carboxylate]", "IC50": "50 to 100"}
{"smiles": "CCOC(=O)c1oc2ccc(S(=O)(=O)N(CCc3ccccc3)c3ccccc3N3C4CCC3CN(C(=O)c3sccc3Br)C4)cc2c1C", "note": "[Example M10-155, Ethyl 5-(N-(2-(3-(3-bromothiophene-2-formyl)-3,8-diazepine[3.2.1]cyclooctan-8-yl)phenyl)-N-phenethylsulfamoyl)3-methylbenzofuran-2-carboxylate]", "IC50": "50 to 100"}
{"smiles": "CCOC(=O)c1oc2ccc(S(=O)(=O)N(CCc3ccccc3)c3ccccc3N3CCN(C(=O)c4sccc4Br)C(C)C3)cc2c1C", "note": "(stereo not drawn) [Example M10-156, Ethyl 5-(N-(2-(4-(3-bromothiophene-2-formyl)-3-methylpiperazin-1-yl)phenyl)-N-phenethylsulfamoyl)3-methylbenzofuran-2-carboxylate]", "IC50": "50 to 100"}
{"smiles": "CCOC(=O)c1oc2ccc(S(=O)(=O)N(CCc3ccccc3)c3ccccc3N3CC4CC3CN4C(=O)c3sccc3Br)cc2c1C", "note": "(stereo not drawn) [Example M10-157, Ethyl 5-(N-(2-(5-(3-bromothiophene-2-formyl)-2,5-diazabicyclo[2.2.1]hept-2-yl)phenyl)-N-phenethylsulfamoyl)3-methylbenzofuran-2-carboxylate]", "IC50": "50 to 100"}
{"smiles": "CCOC(=O)c1sc2ccc(S(=O)(=O)N(CCc3ccccc3)c3ccccc3N3CCN(C(=O)c4sccc4Br)CC3)cc2c1C", "note": "[Example M10-158, ethyl 5-(N-(2-(4-(3-bromothiophene-2-carbonyl)piperazin-1-yl)phenyl)-N-phenethylsulfamoyl)-3-toluothiophene-2-carboxylate]", "IC50": "50 to 100"}
{"smiles": "CCOC(=O)c1cc2cc(S(=O)(=O)N(CCc3ccccc3)c3ccccc3N3CCN(C(=O)c4sccc4Br)CC3)ccc2s1", "note": "[Example M10-159, Ethyl 5-(N-(2-(4-(3-bromothiophene-2-carbonyl)piperazin-1-yl)phenyl)-N-phenethylsulfamoyl)benzo[b]thiophene-2-carboxylate]", "IC50": "50 to 100"}
{"smiles": "CCOC(=O)c1cc2ccc(S(=O)(=O)N(CCc3ccccc3)c3ccccc3N3CCN(C(=O)c4sccc4Br)CC3)cc2s1", "note": "[Example M10-160, Ethyl 6-(N-(2-(4-(3-bromothiophene-2-carbonyl)piperazin-1-yl)phenyl)-N-phenethylsulfamoyl)benzo[b]thiophene-2-carboxylate]", "IC50": "50 to 100"}
{"smiles": "CCOC(=O)c1[nH]c2ccc(S(=O)(=O)N(CCc3ccccc3)c3ccccc3N3CCN(C(=O)c4sccc4Br)CC3)cc2c1Cl", "note": "[Example M10-161, Ethyl 5-(N-(2-(4-(3-bromothiophene-2-carbonyl)piperazin-1-yl)phenyl)-N-phenethylsulfamoyl)-3-chloro-1H-indole-2-carboxylate]", "IC50": "50 to 100"}
{"smiles": "CCOC(=O)c1cc2cc(S(=O)(=O)N(CCc3ccccc3)c3ccccc3N3CCN(C(=O)c4sccc4Br)CC3)ccc2o1", "note": "[Example M10-162, Ethyl 5-(N-(2-(4-(3-bromothiophene-2-formyl)piperazin-1-yl)phenyl)-N-phenethylsulfamoyl)benzofuran-2-carboxylate]", "IC50": "50 to 100"}
{"smiles": "CCOC(=O)c1oc2cc(S(=O)(=O)N(CCc3ccccc3)c3ccccc3N3CCN(C(=O)c4sccc4Br)CC3)ccc2c1C", "note": "[Example M10-163, Ethyl 6-(N-(2-(4-(3-bromothiophene-2-formyl)piperazin-1-yl)phenyl)-N-phenethylsulfamoyl)-3-methylbenzofuran-2-carboxylate]", "IC50": "50 to 100"}
{"smiles": "CCOC(=O)c1cc2ccc(S(=O)(=O)N(CCc3ccccc3)c3ccccc3N3CCN(C(=O)c4sccc4Br)CC3)cc2o1", "note": "[Example M10-164, Ethyl 6-(N-(2-(4-(3-bromothiophene-2-formyl)piperazin-1-yl)phenyl)-N-phenethylsulfamoyl)benzofuran-2-carboxylate]", "IC50": "50 to 100"}
{"smiles": "CCOC(=O)c1sc2ccc(S(=O)(=O)N(CCc3ccc(Cl)cc3)c3ccccc3N3CCN(C(=O)c4sccc4Br)CC3)cc2c1C", "note": "[Example M10-165, ethyl 5-(N-(2-(4-(3-bromothiophene-2-carbonyl)piperazin-1-yl)phenyl)-N-(4-chlorophenylethyl)sulfamoyl)-3-methylbenzothiophene-2-carboxylate]", "IC50": "50 to 100"}
